Results taken from patent US11584755B2 (IDEAYA BIOSCIENCES, INC., priority 2017, dated 2023).

biological target: hFEN1 (Homo sapiens (Human), UniProt P39748); test: Enzymatic IC50 assay, FAM-labeled DNA oligomer substrate, fluorescence intensity (FEN1); assay type: biochemical; conditions: hFEN1 70 pM, substrate 100 nM, reaction time 20 minutes, 23° C.
Procedure: FEN1, EXO1 or XPG enzyme was incubated with compound or vehicle (DMSO) and the FAM-labeled DNA oligomer substrate in a microtiter plate. The stop buffer contains EDTA to stop the enzymatic reaction. The plate is read for fluorescence intensity. The high control (DMSO) with high fluorescence intensity represents no inhibition of enzymatic reaction while the low control (10 μM) with low fluorescence intensity represents full inhibition of enzymatic reaction.
• FEN1 • hFEN1: 70 pM • Substrate: 100 nM • Reaction time: 20 minutes • EXO1 • hEXO1: 6 nM, Isoforml • Substrate: 30 nM • Reaction time: 60 minutes • XPG • hXPG: 100 nM • Substrate: 100 nM • Reaction time: 120 minutes
Annealing Buffer: 50 mM Tris-HCl, 50 mM NaCl, 1 mM DTT Assay buffer: 50 mM Tris-HCl pH 8.0, 10 mM MgCl2, 0.01% BSA, 1 mM DTT Stop buffer: 50 mM EDTA in assay buffer Temperature: 23° C. Total volume: 40 μl Controls: • 0% inhibition control: DMSO • 100% inhibition control: 10 μM (final) 5-chloro-3-hydroxy-1,3-dihydroquinazoline-2,4-dione Enzyme Reaction and Detection: • 1. Prepare 25 μM intermediate stock of the substrate by diluting SEQ ID NO:1, SEQ ID NO:2, and SEQ ID NO:3 in annealing buffer, in a PCR tube. • 2. Place the PCR tube on a heat block, heat at 95° C. for 3 minutes, then drop in 0.2° C. increments over 2 minutes, stopping at 25° C. • 3. Remove the tube and let the tube cool at room temperature. • 4. Transfer 10 μL of 3× final concentration test compounds or DMSO to the appropriate wells of a microtiter plate. • 5. Transfer 10 μL of 3× final concentration enzyme in assay buffer or assay buffer alone to the appropriate wells. • 6. Incubate the plate at room temperature for 15 minutes. • 7. Transfer 10 μL of 3× substrate in assay buffer to all the test wells. • 8. Incubate the plate at room temperature for prescribed reaction time. • 9. Centrifuge the plate at 1000 rpm for 1 minute. • 10. Transfer 10 μL of stop buffer to all the test wells. • 11. Centrifuge the plate at 1000 rpm for 1 minute. • 12. Read the plate on a plate reader.

Sequence of hFEN1 (P39748 whole entry): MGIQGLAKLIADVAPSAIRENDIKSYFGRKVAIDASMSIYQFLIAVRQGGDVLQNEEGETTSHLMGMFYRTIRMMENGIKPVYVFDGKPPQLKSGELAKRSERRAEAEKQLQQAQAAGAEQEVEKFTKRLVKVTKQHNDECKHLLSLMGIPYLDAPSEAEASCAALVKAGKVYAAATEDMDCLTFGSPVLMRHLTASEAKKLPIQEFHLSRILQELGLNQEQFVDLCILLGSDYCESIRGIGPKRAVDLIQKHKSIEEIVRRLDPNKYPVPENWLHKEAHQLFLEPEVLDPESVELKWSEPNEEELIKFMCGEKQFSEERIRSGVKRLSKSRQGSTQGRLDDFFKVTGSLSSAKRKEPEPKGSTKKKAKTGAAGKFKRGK

`COc1cc(Cn2cc(Cn3c(=O)c(O)c(C(=O)O)c4sccc43)cn2)ccc1C#N` [Example 26, 4-{[1-(4-cyano-3-methoxybenzyl)-1H-pyrazol-4-yl]methyl}-6-hydroxy-5-oxo-4,5-dihydrothieno[3,2-b]pyridine-7-carboxylic acid] and `Cn1nccc1Cn1cc(Cn2c(=O)c(O)c(C(=O)O)c3sccc32)cn1` [Example 124, 6-hydroxy-4-({1-[(1-methyl-1H-pyrazol-5-yl)methyl]-1H-pyrazol-4-yl}methyl)-5-oxo-4,5-dihydrothieno[3,2-b]pyridine-7-carboxylic acid] cannot be ordered by IC50: < 200 nM for the first, < 200 nM for the second.

First: O=C(O)c1c(O)c(=O)n(Cc2cccc(C(F)(F)F)c2)c2ccsc12 [Example 43, 6-hydroxy-5-oxo-4-(3-(trifluoromethyl)benzyl)-4,5-dihydrothieno[3,2-b]pyridine-7-carboxylic acid]
Second: O=C(O)c1c(O)c(=O)n(Cc2cccc(OC(F)(F)F)c2)c2ccsc12 [Example 55, 6-hydroxy-5-oxo-4-(3-(trifluoromethoxy)benzyl)-4,5-dihydrothieno[3,2-b]pyridine-7-carboxylic acid]
The IC50 of the first is lower: 250 to 750 nM for the first, 750 to 2250 nM for the second.

`CC(=O)Nc1cc(Cn2c(=O)c(O)c(C(=O)O)c3sccc32)ccc1Cl` [Example 65, 4-(3-acetamido-4-chlorobenzyl)-6-hydroxy-5-oxo-4,5-dihydrothieno[3,2-b]pyridine-7-carboxylic acid] and `COc1ccc(Cn2c(=O)c(O)c(C(=O)O)c3sccc32)cc1NC(C)=O` [Example 89, 4-(3-acetamido-4-methoxybenzyl)-6-hydroxy-5-oxo-4,5-dihydrothieno[3,2-b]pyridine-7-carboxylic acid] fall in the same range of IC50: 250 to 750 nM for the first, 250 to 750 nM for the second.

`COc1ccc(-n2cc(Cn3c(=O)c(O)c(C(=O)O)c4sccc43)nn2)cc1` [Example 25, 6-hydroxy-4-{[1-(4-methoxyphenyl)triazol-4-yl]methyl}-5-oxo-thieno[3,2-b]pyridine-7-carboxylic acid] and `Nc1ccc(-n2cc(Cn3c(=O)c(O)c(C(=O)O)c4sccc43)cn2)cc1` [Example 118, 4-{[1-(4-aminophenyl)-1H-pyrazol-4-yl]methyl}-6-hydroxy-5-oxo-4,5-dihydrothieno[3,2-b]pyridine-7-carboxylic acid] cannot be ordered by IC50: < 200 nM for the first, < 200 nM for the second.

First: O=C(O)c1c(O)c(=O)n(Cc2cnn(CC3CCS(=O)(=O)CC3)c2)c2ccsc12 [Example 145]
Second: O=C(O)c1c(O)c(=O)n(Cc2cnn(CC(F)(F)F)c2)c2ccsc12 [Example 137, 6-hydroxy-5-oxo-4-{[1-(2,2,2-trifluoroethyl)-1H-pyrazol-4-yl]methyl}-4,5-dihydrothieno[3,2-b]pyridine-7-carboxylic acid]
The IC50 of the first is higher: 250 to 750 nM for the first, < 200 nM for the second. The second is the more potent here.

First: Cc1cc(Cn2c(=O)c(O)c(C(=O)O)c3sccc32)no1 [Example 82, 6-hydroxy-4-[(5-methylisoxazol-3-yl)methyl]-5-oxo-4,5-dihydrothieno[3,2-b]pyridine-7-carboxylic acid]
Second: N#Cc1cccc(Cn2c(=O)c(O)c(C(=O)O)c3sccc32)c1 [Example 58, 4-(3-cyanobenzyl)-6-hydroxy-5-oxo-4,5-dihydrothieno[3,2-b]pyridine-7-carboxylic acid]
The IC50 of the first is lower: 750 to 2250 nM for the first, 2250 to 10000 nM for the second. The first is the more potent here.

`O=C(O)c1c(O)c(=O)n(CC2CCCCC2)c2ccsc12` [Example 44, 4-(cyclohexylmethyl)-6-hydroxy-5-oxo-4,5-dihydrothieno[3,2-b]pyridine-7-carboxylic acid] and `O=C(O)c1c(O)c(=O)n(CC2CCOCC2)c2ccsc12` [Example 69, 6-hydroxy-5-oxo-4-[(tetrahydro-2H-pyran-4-yl)methyl]-4,5-dihydrothieno[3,2-b]pyridine-7-carboxylic acid] fall in the same range of IC50: 2250 to 10000 nM for the first, 2250 to 10000 nM for the second.

`COc1ccccc1Cn1c(=O)c(O)c(C(=O)O)c2sccc21` [Example 64, 6-hydroxy-4-(2-methoxybenzyl)-5-oxo-4,5-dihydrothieno[3,2-b]pyridine-7-carboxylic acid] and `O=C(O)c1c(O)c(=O)n(Cc2ccccc2F)c2ccsc12` [Example 68, 4-(2-fluorobenzyl)-6-hydroxy-5-oxo-4,5-dihydrothieno[3,2-b]pyridine-7-carboxylic acid] fall in the same range of IC50: 2250 to 10000 nM for the first, 2250 to 10000 nM for the second.

First: O=C(O)c1c(O)c(=O)n(Cc2ncn(-c3ccccc3)n2)c2ccsc12 [Example 20, 6-hydroxy-5-oxo-4-[(1-phenyl-1H-1,2,4-triazol-3-yl)methyl]-4,5-dihydrothieno[3,2-b]pyridine-7-carboxylic acid]
Second: O=C(O)c1c(O)c(=O)n(Cc2ccccc2Br)c2ccsc12 [Example 35, 4-(2-bromobenzyl)-6-hydroxy-5-oxo-4,5-dihydrothieno[3,2-b]pyridine-7-carboxylic acid]
The IC50 of the first is lower: 250 to 750 nM for the first, 2250 to 10000 nM for the second. The first is the more potent here.

First: O=C(O)c1c(O)c(=O)n(CC2COc3ccccc3O2)c2ccsc12 (centres unmarked) [Example 13, 4-(2,3-dihydro-1,4-benzodioxin-3-ylmethyl)-6-hydroxy-5-oxo-thieno[3,2-b]pyridine-7-carboxylic acid]
Second: O=C(O)c1c(O)c(=O)n(CC2COc3ccccc3C2)c2ccsc12 (centres unmarked) [Example 80, 4-(chroman-3-ylmethyl)-6-hydroxy-5-oxo-4,5-dihydrothieno[3,2-b]pyridine-7-carboxylic acid]
The IC50 of the first is lower: < 200 nM for the first, 2250 to 10000 nM for the second. The first is the more potent here.

First: Nc1ccc(Cn2c(=O)c(O)c(C(=O)O)c3sccc32)cc1Cl [Example 73, 4-(4-amino-3-chlorobenzyl)-6-hydroxy-5-oxo-4,5-dihydrothieno[3,2-b]pyridine-7-carboxylic acid]
Second: O=C(O)c1c(O)c(=O)n(Cc2ccc(OC(F)F)cc2)c2ccsc12 [Example 57, 4-(4-(difluoromethoxy)benzyl)-6-hydroxy-5-oxo-4,5-dihydrothieno[3,2-b]pyridine-7-carboxylic acid]
The IC50 of the first is higher: 250 to 750 nM for the first, < 200 nM for the second. The second is the more potent here.

`O=C(O)c1c(O)c(=O)n(CC2COCCO2)c2ccsc12` (centres unmarked) [Example 74, 4-((1,4-dioxan-2-yl)methyl)-6-hydroxy-5-oxo-4,5-dihydrothieno[3,2-b]pyridine-7-carboxylic acid] and `CC(C)(C)OC(=O)N1CCCC(Cn2c(=O)c(O)c(C(=O)O)c3sccc32)C1` (centres unmarked) [Example 61, 4-{[1-(tert-butoxycarbonyl)piperidin-3-yl]methyl}-6-hydroxy-5-oxo-4,5-dihydrothieno[3,2-b]pyridine-7-carboxylic acid] fall in the same range of IC50: 2250 to 10000 nM for the first, 2250 to 10000 nM for the second.

First: O=C(O)c1c(O)c(=O)n(Cc2cncc(-c3ccccc3)c2)c2ccsc12 [Example 103, 6-hydroxy-5-oxo-4-[(5-phenylpyridin-3-yl)methyl]-4,5-dihydrothieno[3,2-b]pyridine-7-carboxylic acid]
Second: O=C(O)c1c(O)c(=O)n(Cc2cnn(-c3ccccc3[N+](=O)[O-])c2)c2ccsc12 [Example 107, 6-hydroxy-4-{[1-(2-nitrophenyl)-1H-pyrazol-4-yl]methyl}-5-oxo-4,5-dihydrothieno[3,2-b]pyridine-7-carboxylic acid]
The IC50 of the first is higher: 250 to 750 nM for the first, < 200 nM for the second. The second is the more potent here.

Compared with `CS(=O)(=O)COc1ccc(Cn2c(=O)c(O)c(C(=O)O)c3sccc32)cc1` [Example 153, 6-hydroxy-4-{4-[(methylsulfonyl)methoxy]benzyl}-5-oxo-4,5-dihydrothieno[3,2-b]pyridine-7-carboxylic acid], `COCCOc1ccc(Cn2c(=O)c(O)c(C(=O)O)c3sccc32)cc1` [Example 152, 6-hydroxy-4-[4-(2-methoxyethoxy)benzyl]-5-oxo-4,5-dihydrothieno[3,2-b]pyridine-7-carboxylic acid] is lower in IC50: 250 to 750 nM for the first, < 200 nM for the second. The second is the more potent here.

`O=C(O)c1c(O)c(=O)n(Cc2cnn(Cc3cncs3)c2)c2ccsc12` [Example 123, 6-hydroxy-5-oxo-4-{[1-(thiazol-5-ylmethyl)-1H-pyrazol-4-yl]methyl}-4,5-dihydrothieno[3,2-b]pyridine-7-carboxylic acid] and `O=C(O)c1c(O)c(=O)n(Cc2cnn(Cc3cn4cccnc4n3)c2)c2ccsc12` [Example 139, 6-hydroxy-4-{[1-(imidazo[1,2-a]pyrimidin-2-ylmethyl)-1H-pyrazol-4-yl]methyl}-5-oxo-4,5-dihydrothieno[3,2-b]pyridine-7-carboxylic acid] cannot be ordered by IC50: < 200 nM for the first, < 200 nM for the second.

First: O=C(O)c1c(O)c(=O)n(Cc2cnn(-c3ccc([N+](=O)[O-])cc3)c2)c2ccsc12 [Example 21, 6-hydroxy-4-{[1-(4-nitrophenyl)-1H-pyrazol-4-yl]methyl}-5-oxo-4,5-dihydrothieno[3,2-b]pyridine-7-carboxylic acid]
Second: CS(=O)(=O)Nc1ccccc1-n1cc(Cn2c(=O)c(O)c(C(=O)O)c3sccc32)cn1 [Example 108, 6-hydroxy-4-{[1-(2-(methylsulfonamido)phenyl]-1H-pyrazol-4-yl}methyl)-5-oxo-4,5-dihydrothieno[3,2-b]pyridine-7-carboxylic acid]
The IC50 of the first is lower: < 200 nM for the first, 250 to 750 nM for the second.
